# Data taken from PMC8778818, “Synthesis, Structural Characterization and Anticancer Activity of New 5-Trifluoromethyl-2-thioxo-thiazolo[4,5-d]pyrimidine Derivatives” (Pharmaceuticals, 2022).
# “Also recorded” adds a separate entry of the source.
# Experiments:
# COLO-205 = test: NCI-60 screen, Colon Cancer COLO-205; assay type: cell-based, human; settings: COLO-205, 10^−5 M one dose
# MOLT-4 = test: NCI-60 screen, Leukemia MOLT-4; assay type: cell-based, human; settings: MOLT-4, 10^−5 M one dose
# SN12C = test: NCI-60 screen, Renal Cancer SN12C; assay type: cell-based; settings: 10^−5 M one dose
# PC-3 = test: NCI-60 screen, Prostate C. PC-3; assay type: cell-based; settings: PC-3, 10^−5 M one dose
# SF-539 = test: NCI-60 screen, CNS Cancer SF-539; assay type: cell-based, human; settings: SF-539, 10^−5 M one dose
# HCT-15 = test: NCI-60 screen, Colon Cancer HCT-15; assay type: cell-based; settings: HCT-15, 10^−5 M one dose
# U251 = test: NCI-60 screen, CNS Cancer U251; assay type: cell-based, human; settings: U251, 10^−5 M one dose
# NCI/ADR-RES = test: NCI-60 screen, Ovarian Cancer NCI/ADR-RES; assay type: cell-based, human; settings: 10^−5 M one dose
# [1] = tested on: 60 human cancer cell lines; test: NCI-60 anticancer screen, full panel; assay type: cell-based; settings: 10^−5 M one dose; for Mean Growth %: mean over the panel
# TK-10 = test: NCI-60 screen, Renal Cancer TK-10; assay type: cell-based, human; settings: TK-10, 10^−5 M one dose
# HT29 = test: NCI-60 screen, Colon Cancer HT29; assay type: cell-based, human; settings: HT29, 10^−5 M one dose
# MDA-MB-231/ATCC = test: NCI-60 screen, Breast Cancer MDA-MB-231/ATCC; assay type: cell-based; settings: MDA-MB-231/ATCC, 10^−5 M one dose
# SF-268 = test: NCI-60 screen, CNS Cancer SF-268; assay type: cell-based, human; settings: SF-268, 10^−5 M one dose
# NCI-H460 = test: NCI-60 screen, Non-Small Cell Lung Cancer NCI-H460; assay type: cell-based, human; settings: NCI-H460, 10^−5 M one dose
# OVCAR-8 = test: NCI-60 screen, Ovarian Cancer OVCAR-8; assay type: cell-based, human; settings: OVCAR-8, 10^−5 M one dose
# NCI-H226 = test: NCI-60 screen, Non-Small Cell Lung Cancer NCI-H226; assay type: cell-based, human; settings: NCI-H226, 10^−5 M one dose
# M14 = settings: M14, 10^−5 M one dose
# OVCAR-4 = test: NCI-60 screen, Ovarian Cancer OVCAR-4; assay type: cell-based, human; settings: OVCAR-4, 10^−5 M one dose
# HL-60(TB) = test: NCI-60 screen, Leukemia HL-60(TB); assay type: cell-based, human; settings: 10^−5 M one dose
# 786-0 = test: NCI-60 screen, Renal Cancer 786-0; assay type: cell-based; settings: 786-0, 10^−5 M one dose
# IGROV1 = test: NCI-60 screen, Ovarian Cancer IGROV1; assay type: cell-based; settings: IGROV1, 10^−5 M one dose
# SK-OV-3 = test: NCI-60 screen, Ovarian Cancer SK-OV-3; assay type: cell-based, human; settings: SK-OV-3, 10^−5 M one dose
# A498 = test: NCI-60 screen, Renal Cancer A498; assay type: cell-based, human; settings: A498, 10^−5 M one dose
# OVCAR-5 = test: NCI-60 screen, Ovarian Cancer OVCAR-5; assay type: cell-based, human; settings: OVCAR-5, 10^−5 M one dose
# BT-549 = test: NCI-60 screen, Breast Cancer BT-549; assay type: cell-based, human; settings: BT-549, 10^−5 M one dose
# HOP-62 = test: NCI-60 screen, Non-Small Cell Lung Cancer HOP-62; assay type: cell-based; settings: HOP-62, 10^−5 M one dose
SMILES,Growth of Cells (%) (COLO-205),Growth of Cells (%) (MOLT-4),Growth of Cells (%) (SN12C),Growth of Cells (%) (SF-539),Growth of Cells (%) (HCT-15),Growth of Cells (%) (NCI/ADR-RES),activity in the one-dose assay (in words) [1],Mean Growth % [1] [%],Growth of Cells (%) (TK-10),Growth of Cells (%) (HT29),Growth of Cells (%) (MDA-MB-231/ATCC),Growth of Cells (%) (SF-268),Growth of Cells (%) (NCI-H460),Growth of Cells (%) (OVCAR-8),Growth of Cells (%) (NCI-H226),Growth of Cells (%) (M14),Growth of Cells (%) (OVCAR-4),Growth of Cells (%) (HL-60(TB)),Growth of Cells (%) (786-0),Growth of Cells (%) (IGROV1),other results
"O=c1[nH]c(C(F)(F)F)nc2c1sc(=S)n2-c1ccccc1 [Compound 2b, 3-phenyl-2-thioxo-5-(trifluoromethyl)-2,3-dihydro[1, 3]thiazolo[4,5-d]pyrimidin-7(6H)-one]",114.26,117.56,106.95,114.10,106.95,25.77,insufficient activity,103.88,130.06,100.96,107.13,101.77,123.50,103.45,103.60,112.91,117.19,149.39,104.97,−5.14,Growth of Cells (%) (PC-3): 100.88%; Growth of Cells (%) (U251): 101.63%; Growth of Cells (%) (SK-OV-3): 108.53%; Growth of Cells (%) (A498): 90.58%; Growth of Cells (%) (OVCAR-5): 101.99%; Growth of Cells (%) (BT-549): 130.31%
"CCNc1nc(C(F)(F)F)nc2c1sc(=S)n2-c1ccccc1 [Compound 4b, 7-(ethylamino)-3-phenyl-5-(trifluoromethyl)[1, 3]thiazolo[4,5-d]pyrimidine-2(3H)-thione]",105.73,81.83,100.30,100.98,94.67,92.88,insufficient activity; also recorded: inactive,96.94,88.79,88.76,85.06,104.72,100.34,96.11,88.51,107.61,98.24,98.91,101.39,101.57,Growth of Cells (%) (HOP-62): 86.06%; Growth of Cells (%) (U251): 93.27%; Growth of Cells (%) (SK-OV-3): 101.70%; Growth of Cells (%) (OVCAR-5): 112.27%; Growth of Cells (%) (BT-549): 95.21%
Fc1ccc(CNc2nc(C(F)(F)F)nc3c2sc(=S)n3-c2ccccc2)cc1 [Compound 4c],112.07,96.58,101.41,102.28,103.39,114.00,insufficient activity; also recorded: inactive,105.13,130.70,103.27,119.48,109.32,109.73,98.68,112.41,112.06,125.04,93.41,99.38,109.98,Growth of Cells (%) (HOP-62): 92.88%; Growth of Cells (%) (PC-3): 100.51%; Growth of Cells (%) (SK-OV-3): 99.96%; Growth of Cells (%) (A498): 121.43%; Growth of Cells (%) (OVCAR-5): 102.72%; Growth of Cells (%) (BT-549): 98.87%
